EP1180991B1, “GAMBOGIC ACID DERIVATIVES AS ACTIVATORS OF CASPASES AND INDUCERS OF APOPTOSIS” (Cytovia, Inc., priority 1999, dated 2000)

Legend:
[1] = Inhibition of cell proliferation (GI50) and cell death (LC50), CellTiter 96 (Example 91); format: cell-based, human; conditions: human, mrc-5 cells; MRC-5 non-transformed fibroblasts; 48 h; dose for 50% cell death
Procedure: (§1) T-47D, ZR-75-1, PC-3, human prostate cancer cell line DU-145, human non-small cell lung cancer cell line A-549, human small cell lung cancer cell line SHP-77, HL-60 and MRC-5 cells were grown and harvested as in Example 90. […] The samples were mixed by agitation and incubated at 37° C for 2-4 h in a 5% CO2-95% humidity incubator. […] This determines the possible background absorbance of the test compounds. No absorbance for gambogic acid or its analogs or derivatives was found at 490 nm. After the 2-4 h incubation, the samples were read for absorbance as above (ATest).
(§2) The samples were mixed by agitation and incubated at 37° C for 2-4 h in a 5% CO2-95% humidity incubator. Absorbance was read as above, (AT=0) defining absorbance for initial cell number used as baseline in GI50 determinations and (Amin) defining absorbance for media alone used as baseline in LC50 determinations.
(§3) GI50 (dose for50%inhibition of cell proliferation) 50 = 100 x [(ATest-AT = 0)/(Amax-AT = 0)] [formula] LC50 (dose for50%cell death) 50 = 100 x [(ATest-Amin)/(AT = 0-Amin)] [formula]

[2] = test system: MRC-5; experiment: as above; format: cell-based, human; conditions: Homo sapiens, MRC5; MRC-5 non-transformed fibroblasts; 48 h; dose for 50% inhibition of cell proliferation; read-out: GI50
Procedure: as §1, §2, §3

SMILES: CC(C)=CCC[C@]1(C)C=Cc2c(O)c3c(c(CC=C(C)C)c2O1)O[C@]12C(=C[C@@H]4C[C@H]1C(C)(C)O[C@@]2(C/C=C(/C)C(=O)O)C4=O)C3=O [Example 1, Gambogic Acid]
- CC50 at 48 h [1]: 500 nM
- GI50 [2]: 400 nM
